Reference: patent US9617267B2, “Compounds and methods for kinase modulation, and indications therefor” (Plexxikon Inc., priority 2009, dated 2017)
Where two headings read alike, the source gives them in different places.

Assays:
CYP1A2 = CYP1A2 (Homo sapiens (Human), UniProt P05177); assay: CYP enzyme inhibition, fluorescent substrate (CEC)
Procedure: (§1) CYP (Cytochrome P450) enzymes are the major drug metabolizing enzymes present in the liver. The inhibition of CYP enzyme activity (IC50) for each of CYP1A2, CYP2C19, CYP2C9, CYP2D6, CYP3A4(BFC) and CYP3A4(BQ) is determined for compounds, where inhibition of metabolism of a known substrate leads to a decrease in the fluorescence of the metabolized product. The fluorescence of the product is monitored as a function of compound concentration.
(§2) Compounds are dissolved in dimethyl sulfoxide to a concentration of 100 mM. These are diluted 1 μL into 82 μL of acetonitrile. An 11 μL aliquot of this solution is then added to 204 μL of cofactor mix (1.3% NADPH Regeneration system Solution A, 1.04% NADPH Regeneration system Solution B from BD Biosciences, 5% acetonitrile and 0.05% dimethyl sulfoxide). These are then serially diluted 1:1 (160 μL to 160 μL co-factor mix) for a total of 10 points. A 10 μL aliquot of this final mixture is dispensed into 384 well assay plates and incubated for 10 minutes at 37° C. Enzyme and substrate mix (10 μL; 0.5 pmol CYP1A2/5 μM CEC; 1.0 pmol CYP2C9/75 μM MFC; 0.5 pmol CYP2C19/25 μM CEC; 1.5 pmol CYP2D6/1.5 μM AMMC; 1.0 pmol CYP3A4/50 μM BFC; or 1.0 pmol CYP3A4/40 μM BQ) is added to these assay plates. Assay plates are incubated at 37° C. (CYP1A2-15 min; CYP2C9-45 min; CYP2C19, 2D6 and 3A4-30 min) and read in a Tecan Safire 2 plate reader (CYP1A2, 2C19 and 3A4 409 ex/460 em; CYP2C9 and 2D6 409 ex/530 em). The signal versus compound concentration is used to determine the IC50. The enzymes and substrates for this assay are obtained from BD Biosciences.

CYP3A4(BFC) = CYP3A4(BFC) (Homo sapiens (Human), UniProt P08684); assay: CYP enzyme inhibition, fluorescent substrate BFC; conditions: read-out: Cyp IC50 3A4(BFC); CYP3A4, substrate BFC
Procedure: as §1
(§3) Compounds are dissolved in dimethyl sulfoxide to a concentration of 100 mM. These are diluted 1 μL into 82 μL of acetonitrile. […] These are then serially diluted 1:1 (160 μL to 160 μL co-factor mix) for a total of 10 points. A 10 μL aliquot of this final mixture is dispensed into 384 well assay plates and incubated for 10 minutes at 37° C. […] Assay plates are incubated at 37° C. […] The signal versus compound concentration is used to determine the IC50. The enzymes and substrates for this assay are obtained from BD Biosciences.

CYP2C9 = CYP2C9 (Homo sapiens (Human), UniProt P11712); assay: CYP enzyme inhibition, fluorescent substrate (MFC)
Procedure: as §1, §3

CYP2C19 = CYP2C19 (Homo sapiens (Human), UniProt P33261); assay: CYP enzyme inhibition, fluorescent substrate (CEC)
Outline: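 Human CYP activity was followed by the fluorescence of the metabolized product of a known substrate, which falls as metabolism is inhibited. Compounds from 100 mM DMSO stocks were serially diluted 1:1 over 10 points in co-factor mix and preincubated 10 min at 37 °C. IC50 was fitted from signal versus concentration.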

CYP3A4(BQ) = CYP3A4(BQ) (Homo sapiens (Human), UniProt P08684); assay: CYP enzyme inhibition, fluorescent substrate BQ; conditions: read-out: Cyp IC50 3A4(BQ); CYP3A4, substrate BQ
Procedure: as §1, §3

CYP2D6 = CYP2D6 (Homo sapiens (Human), UniProt P10635); assay: CYP enzyme inhibition, fluorescent substrate (AMMC); assay type: in vitro ADME; conditions: read-out: Cyp IC50 2D6
Procedure: as §1, §2

B-Raf [1] = assay: B-Raf kinase activity biochemical assay (AlphaScreen, biotin-MEK1 phosphorylation); conditions: for Biochemical activity ratio B/V600E: ratio of IC50 B-Raf / B-Raf V600E; for Biochemical activity ratio B/C: ratio of IC50 B-Raf / c-Raf-1
Outline: (§4)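 Biotin-MEK1 phosphorylation measured after 45 min kinase reaction at RT with 100 μM ATP final; compounds tested at 8 points from 0.1 mM DMSO stock.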

B-Raf [2] = biological target: B-Raf (Homo sapiens (Human), UniProt P15056); assay: as above; conditions: B-Raf
Outline: as §4

[3] = Relative solubility by turbidity threshold concentration in aqueous buffers (pH 1.5, 4.5, 6.8, 7.4); assay type: physicochemical; conditions: for turbidity threshold (L, M, H) 4.5: pH 4.5 (SIF); for turbidity threshold (L, M, H) 7.4: pH 7.4 (HEPES); for turbidity threshold (L, M, H) 1.4: pH 1.4 [sic] (method: SGF pH 1.5); for turbidity threshold (L, M, H) 6.8: pH 6.8 (SIF)
Outline: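 Solubility class (high >250 μM, moderate 31.3–250 μM, low <31.3 μM) comes from the concentration where absorbance reaches a 0.01 threshold, averaged across 490/535/650 nm. Samples were compound dilutions from DMSO stock, 1 μL into 99 μL buffer at pH 1.5, 4.5, 6.8 or 7.4.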

B-Raf V600E = B-Raf V600E (Homo sapiens (Human), UniProt P15056, V600E); assay: B-Raf V600E kinase activity biochemical assay (AlphaScreen, biotin-MEK1 phosphorylation); conditions: for IC50: B-Raf V600E; for Biochemical activity ratio V600E/C: ratio of IC50 B-Raf V600E / c-Raf-1
Outline: as §4

c-Raf-1 = c-Raf-1 (Homo sapiens, UniProt P04049); assay: c-Raf-1 kinase activity biochemical assay (AlphaScreen, biotin-MEK1 phosphorylation)
Outline: as §4

[4] = read-out: Cyp IC50 2C9, CYP2C9, substrate MFC
[5] = read-out: Cyp IC50 2C19, CYP2C19, substrate CEC
[6] = read-out: Cyp IC50 1A2, CYP1A2, substrate CEC

Chain of CYP1A2 (P05177 whole entry): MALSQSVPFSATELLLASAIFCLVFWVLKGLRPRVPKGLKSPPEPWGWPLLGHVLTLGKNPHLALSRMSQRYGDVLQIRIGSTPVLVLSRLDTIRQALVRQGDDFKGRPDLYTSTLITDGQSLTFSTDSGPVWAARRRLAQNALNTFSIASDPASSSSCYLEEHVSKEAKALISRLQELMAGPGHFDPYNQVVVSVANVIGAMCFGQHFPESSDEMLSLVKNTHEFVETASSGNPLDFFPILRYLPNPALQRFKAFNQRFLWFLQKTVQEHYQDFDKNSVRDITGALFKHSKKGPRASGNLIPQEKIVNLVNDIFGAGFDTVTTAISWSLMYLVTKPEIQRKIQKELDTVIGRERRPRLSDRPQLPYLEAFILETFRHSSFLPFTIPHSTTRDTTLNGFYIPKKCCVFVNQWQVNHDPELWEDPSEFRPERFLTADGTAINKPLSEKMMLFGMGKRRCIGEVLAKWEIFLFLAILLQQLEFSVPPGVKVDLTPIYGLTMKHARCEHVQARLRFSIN
Chain of B-Raf V600E (P15056 whole entry V600E): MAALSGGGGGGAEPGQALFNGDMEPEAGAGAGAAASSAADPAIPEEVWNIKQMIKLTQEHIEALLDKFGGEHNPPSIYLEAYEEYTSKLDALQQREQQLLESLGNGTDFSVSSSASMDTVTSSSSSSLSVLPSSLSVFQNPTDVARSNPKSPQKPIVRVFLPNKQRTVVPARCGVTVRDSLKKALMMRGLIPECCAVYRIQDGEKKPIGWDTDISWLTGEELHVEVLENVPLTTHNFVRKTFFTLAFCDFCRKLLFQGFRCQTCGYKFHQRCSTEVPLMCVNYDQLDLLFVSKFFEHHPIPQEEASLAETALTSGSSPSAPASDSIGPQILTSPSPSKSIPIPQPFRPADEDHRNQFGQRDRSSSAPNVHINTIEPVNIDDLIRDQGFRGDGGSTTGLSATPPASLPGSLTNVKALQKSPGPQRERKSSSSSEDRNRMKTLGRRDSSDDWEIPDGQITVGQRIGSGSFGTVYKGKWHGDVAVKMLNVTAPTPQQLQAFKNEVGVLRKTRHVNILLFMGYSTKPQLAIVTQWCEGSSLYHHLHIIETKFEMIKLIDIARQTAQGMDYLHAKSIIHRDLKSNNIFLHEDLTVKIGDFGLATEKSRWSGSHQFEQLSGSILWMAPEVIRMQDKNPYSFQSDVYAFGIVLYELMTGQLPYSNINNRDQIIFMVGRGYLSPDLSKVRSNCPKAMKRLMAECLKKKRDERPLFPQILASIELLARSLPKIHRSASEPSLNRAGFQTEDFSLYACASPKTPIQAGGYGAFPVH
Chain of CYP3A4(BFC) (P08684 whole entry): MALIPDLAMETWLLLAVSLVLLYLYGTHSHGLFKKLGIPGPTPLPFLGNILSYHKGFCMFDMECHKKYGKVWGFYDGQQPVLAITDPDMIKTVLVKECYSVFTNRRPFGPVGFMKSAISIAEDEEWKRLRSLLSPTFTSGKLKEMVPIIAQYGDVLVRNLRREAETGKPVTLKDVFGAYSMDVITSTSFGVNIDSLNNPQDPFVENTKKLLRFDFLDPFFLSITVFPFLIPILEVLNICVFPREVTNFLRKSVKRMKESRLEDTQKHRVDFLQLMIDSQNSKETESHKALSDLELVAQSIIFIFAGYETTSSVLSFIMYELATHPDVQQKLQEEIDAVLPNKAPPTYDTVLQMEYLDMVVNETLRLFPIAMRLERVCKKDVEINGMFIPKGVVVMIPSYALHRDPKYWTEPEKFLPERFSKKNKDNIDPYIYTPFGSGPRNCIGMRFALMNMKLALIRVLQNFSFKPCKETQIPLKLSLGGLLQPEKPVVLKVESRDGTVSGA
Chain of c-Raf-1 (P04049 whole entry, looked up): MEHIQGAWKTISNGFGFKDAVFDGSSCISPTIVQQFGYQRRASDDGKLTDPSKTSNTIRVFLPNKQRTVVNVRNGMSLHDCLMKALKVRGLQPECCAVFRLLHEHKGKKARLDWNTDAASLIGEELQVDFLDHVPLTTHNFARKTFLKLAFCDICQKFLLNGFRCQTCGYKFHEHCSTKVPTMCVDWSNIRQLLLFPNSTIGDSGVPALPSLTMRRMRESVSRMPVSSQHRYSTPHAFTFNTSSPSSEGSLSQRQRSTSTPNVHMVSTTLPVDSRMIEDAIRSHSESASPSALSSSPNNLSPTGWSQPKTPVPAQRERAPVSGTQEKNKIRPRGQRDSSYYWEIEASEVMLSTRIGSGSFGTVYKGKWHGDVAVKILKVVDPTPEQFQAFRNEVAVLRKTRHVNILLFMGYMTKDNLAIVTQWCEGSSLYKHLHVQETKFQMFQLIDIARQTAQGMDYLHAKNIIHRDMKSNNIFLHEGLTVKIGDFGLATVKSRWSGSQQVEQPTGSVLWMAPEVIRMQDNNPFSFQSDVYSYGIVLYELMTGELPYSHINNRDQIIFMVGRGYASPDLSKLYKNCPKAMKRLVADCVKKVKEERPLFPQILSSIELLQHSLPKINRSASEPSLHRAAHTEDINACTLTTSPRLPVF
Chain of CYP2D6 (P10635 whole entry): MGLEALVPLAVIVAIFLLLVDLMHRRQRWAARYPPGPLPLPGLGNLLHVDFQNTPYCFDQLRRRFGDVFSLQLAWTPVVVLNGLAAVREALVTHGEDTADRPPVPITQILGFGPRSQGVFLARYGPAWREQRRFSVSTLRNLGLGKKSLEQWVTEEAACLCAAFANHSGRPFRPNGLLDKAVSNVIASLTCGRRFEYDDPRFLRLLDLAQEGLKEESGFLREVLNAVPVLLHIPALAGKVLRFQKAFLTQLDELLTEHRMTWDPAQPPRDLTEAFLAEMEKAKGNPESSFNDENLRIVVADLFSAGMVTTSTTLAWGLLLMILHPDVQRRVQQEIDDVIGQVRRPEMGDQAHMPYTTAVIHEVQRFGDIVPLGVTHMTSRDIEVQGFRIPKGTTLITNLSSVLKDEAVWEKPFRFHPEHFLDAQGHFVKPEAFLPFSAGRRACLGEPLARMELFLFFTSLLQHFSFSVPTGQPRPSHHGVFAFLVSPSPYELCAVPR
Chain of B-Raf (Homo sapiens (Human), UniProt P15056) (P15056 whole entry): as the sequence (P15056 whole entry V600E) above, with E600V counted along it
Chain of CYP2C9 (P11712 whole entry): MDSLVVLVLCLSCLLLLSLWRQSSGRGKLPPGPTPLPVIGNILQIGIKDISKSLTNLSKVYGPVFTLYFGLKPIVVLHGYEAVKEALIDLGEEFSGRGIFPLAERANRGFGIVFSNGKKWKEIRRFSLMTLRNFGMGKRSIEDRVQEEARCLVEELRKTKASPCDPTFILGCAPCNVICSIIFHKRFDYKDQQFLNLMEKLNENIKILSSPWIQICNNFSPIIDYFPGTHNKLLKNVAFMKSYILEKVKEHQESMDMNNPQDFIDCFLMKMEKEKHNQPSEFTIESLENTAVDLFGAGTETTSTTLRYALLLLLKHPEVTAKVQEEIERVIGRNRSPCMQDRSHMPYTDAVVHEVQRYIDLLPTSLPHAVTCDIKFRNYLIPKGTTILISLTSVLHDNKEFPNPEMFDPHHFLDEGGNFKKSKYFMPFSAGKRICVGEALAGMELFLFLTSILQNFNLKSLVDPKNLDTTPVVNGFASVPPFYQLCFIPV
Chain of CYP2C19 (P33261 whole entry): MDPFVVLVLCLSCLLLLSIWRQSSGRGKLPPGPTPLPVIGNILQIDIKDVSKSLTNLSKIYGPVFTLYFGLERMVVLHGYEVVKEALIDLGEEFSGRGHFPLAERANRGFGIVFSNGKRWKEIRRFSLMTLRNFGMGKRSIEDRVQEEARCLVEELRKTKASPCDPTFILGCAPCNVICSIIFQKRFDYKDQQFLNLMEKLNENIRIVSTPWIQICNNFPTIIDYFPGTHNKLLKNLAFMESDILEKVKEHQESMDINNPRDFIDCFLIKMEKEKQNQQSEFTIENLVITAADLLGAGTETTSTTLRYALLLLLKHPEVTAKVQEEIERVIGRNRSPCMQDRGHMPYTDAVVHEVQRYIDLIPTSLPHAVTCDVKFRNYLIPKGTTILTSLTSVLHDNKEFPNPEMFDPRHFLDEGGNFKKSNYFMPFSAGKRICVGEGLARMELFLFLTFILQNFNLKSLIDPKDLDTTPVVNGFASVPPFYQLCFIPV
Chain of CYP3A4(BQ) (P08684 whole entry): as the sequence (P08684 whole entry) above

Row | SMILES | IC50 (CYP1A2; human, 15 min) | IC50 (CYP3A4(BFC)) | IC50 (CYP2C9; [4]) | IC50 (CYP2C19; [5]) | IC50 (CYP3A4(BQ)) | IC50 (CYP2D6) | IC50 (CYP1A2; [6]) | Biochemical activity ratio B/V600E (B-Raf [1]) | Biochemical activity ratio B/C (B-Raf [1]) | IC50 (B-Raf [2]) | turbidity threshold (L, M, H) 4.5 [3] | turbidity threshold (L, M, H) 7.4 [3] | IC50 (B-Raf V600E) | Biochemical activity ratio V600E/C (B-Raf V600E) | IC50 (c-Raf-1) | IC50 (CYP2C9) | turbidity threshold (L, M, H) 1.4 [3] | IC50 (CYP2C19) | turbidity threshold (L, M, H) 6.8 [3]
1 | CCn1cc(Nc2ncnc3[nH]cc(C(=O)c4c(F)ccc(NS(=O)(=O)c5cc(F)ccc5F)c4F)c23)cn1 [P-1142, N-{3-[4-(1-Ethyl-1H-pyrazol-4-ylamino)-7H-pyrrolo[2,3-d]pyrimidine-5-carbonyl]-2,4-difluoro-phenyl}-2,5-difluoro-benzenesulfonamide] | > 10 µM | > 10 µM | > 10 µM | > 10 µM | > 10 µM | > 10 µM | – | – | – | – | – | – | – | – | – | – | – | – | –
2 | CCCc1ccc(S(=O)(=O)Nc2ccc(F)c(C(=O)c3c[nH]c4ncnc(O)c34)c2F)cc1 [P-1030, N-[2,4-Difluoro-3-(4-hydroxy-7H-pyrrolo[2,3-d]pyrimidine-5-carbonyl)-phenyl]-4-propyl-benzenesulfonamide] | – | > 10 µM | > 10 µM | > 10 µM | – | > 10 µM | > 10 µM | <0.1 | 0.1-10 | > 0.1 µM | M (moderate solubility if the threshold concentration is 31.3 μM to 250 μM) | M (moderate solubility if the threshold concentration is 31.3 μM to 250 μM) | > 0.1 µM | >10 | < 0.1 µM | – | – | – | –
3 | CC(C)c1ncnc2[nH]cc(C(=O)c3c(F)ccc(NS(=O)(=O)c4ccc(C(F)(F)F)cc4)c3F)c12 [P-1029, N-[2,4-Difluoro-3-(4-isopropyl-7H-pyrrolo[2,3-d]pyrimidine-5-carbonyl)-phenyl]-4-trifluoromethyl-benzenesulfonamide] | – | > 10 µM | – | – | – | > 10 µM | > 10 µM | 0.1-10 | >10 | < 0.1 µM | – | M (moderate solubility if the threshold concentration is 31.3 μM to 250 μM) | > 0.1 µM | >10 | < 0.1 µM | 5 to 10 µM | M (moderate solubility if the threshold concentration is 31.3 μM to 250 μM) | 5 to 10 µM | –
4 | CC(C)CNc1ncnc2[nH]cc(C(=O)c3c(F)ccc(NS(=O)(=O)c4ccc(C(F)(F)F)cc4)c3F)c12 [P-1020, N-[2,4-Difluoro-3-(4-isobutylamino-7H-pyrrolo[2,3-d]pyrimidine-5-carbonyl)-phenyl]-4-trifluoromethyl-benzenesulfonamide] | > 10 µM | > 10 µM | > 10 µM | > 10 µM | – | > 10 µM | – | 0.1-10 | >10 | < 0.1 µM | – | H (high solubility if the threshold concentration is >250 μm) | > 0.1 µM | >10 | < 0.1 µM | – | H (high solubility if the threshold concentration is >250 μm) | – | –
5 | CCNc1ncnc2[nH]cc(C(=O)c3c(F)ccc(NS(=O)(=O)c4ccc(C(F)(F)F)cc4)c3F)c12 [P-1024, N-[3-(4-Ethylamino-7H-pyrrolo[2,3-d]pyrimidine-5-carbonyl)-2,4-difluoro-phenyl]-4-trifluoromethyl-benzenesulfonamide] | > 10 µM | > 10 µM | > 10 µM | – | – | > 10 µM | – | 0.1-10 | >10 | < 0.1 µM | L (low solubility if the threshold concentration is <31.3 μM) | L (low solubility if the threshold concentration is <31.3 μM) | > 0.1 µM | >10 | < 0.1 µM | – | M (moderate solubility if the threshold concentration is 31.3 μM to 250 μM) | 5 to 10 µM | L (low solubility if the threshold concentration is <31.3 μM)
6 | CCCS(=O)(=O)Nc1ccc(F)c(C(=O)c2c[nH]c3ncnc(Cl)c23)c1F [P-1033, Propane-1-sulfonic acid [3-(4-chloro-7H-pyrrolo[2,3-d]pyrimidine-5-carbonyl)-2,4-difluoro-phenyl]-amide] | > 10 µM | > 10 µM | > 10 µM | > 10 µM | – | > 10 µM | – | 0.1-10 | >10 | > 0.1 µM | H (high solubility if the threshold concentration is >250 μm) | H (high solubility if the threshold concentration is >250 μm) | < 0.1 µM | 0.1-10 | < 0.1 µM | – | H (high solubility if the threshold concentration is >250 μm) | – | H (high solubility if the threshold concentration is >250 μm)
7 | CCCNc1ncnc2[nH]cc(C(=O)c3c(F)ccc(NS(=O)(=O)c4ccc(C(F)(F)F)cc4)c3F)c12 [P-1032, N-[2,4-Difluoro-3-(4-propylamino-7H-pyrrolo[2,3-d]pyrimidine-5-carbonyl)-phenyl]-4-trifluoromethyl-benzenesulfonamide] | – | > 10 µM | > 10 µM | – | – | > 10 µM | > 10 µM | 0.1-10 | >10 | < 0.1 µM | L (low solubility if the threshold concentration is <31.3 μM) | – | < 0.1 µM | >10 | < 0.1 µM | – | L (low solubility if the threshold concentration is <31.3 μM) | 5 to 10 µM | –
8 | CC(C)COc1ncnc2[nH]cc(C(=O)c3c(F)ccc(NS(=O)(=O)c4ccc(C(F)(F)F)cc4)c3F)c12 [P-1028, N-[2,4-Difluoro-3-(4-isobutoxy-7H-pyrrolo[2,3-d]pyrimidine-5-carbonyl)-phenyl]-4-trifluoromethyl-benzenesulfonamide] | > 10 µM | > 10 µM | – | > 10 µM | – | > 10 µM | – | 0.1-10 | >10 | > 0.1 µM | L (low solubility if the threshold concentration is <31.3 μM) | M (moderate solubility if the threshold concentration is 31.3 μM to 250 μM) | > 0.1 µM | >10 | < 0.1 µM | 5 to 10 µM | M (moderate solubility if the threshold concentration is 31.3 μM to 250 μM) | – | L (low solubility if the threshold concentration is <31.3 μM)
